Results reported in patent US9018214B2, “Bicyclic heterocycle compounds and their uses in therapy” (Astex Therapeutics Limited, priority 2011, dated 2015).
pEC50, pIC50: −log10 of the molar value. Where a name gives a salt, the structure may show the parent alone. Read-outs that look alike come from different tables or passages of the source.

Key:
[1] = biological target: BIR3 domain of human cIAP-1 (residues 267-363) (Homo sapiens (Human), UniProt Q13490); assay: cIAP-1 in vitro competitive displacement binding assay (fluorescence polarization; Probe A AVPIK(5&6FAM)-amide or Probe B AbuRPFK(5&6FAM)-amide)
[2] = tested on: EVSA-T (human breast carcinoma); assay: Anti-proliferative activity, Alamar Blue assay, EVSA-T; type: cell-based; conditions: Homo sapiens
[3] = biological target: BIR3 domain of human XIAP (residues 252-350) (Homo sapiens (Human), UniProt P98170); assay: XIAP in vitro competitive displacement binding assay (fluorescence polarization); conditions: for pIC50: read-out: IC50 or PI Xiap: IC50; for inhibition at 0.04 µM: 1 h, read-out: IC50 or PI Xiap: PI
[4] = 3 h, read-out: IC50 or PI cIAP1: PI
[5] = EVSA-T, 72 h, read-out: EVSA-T prolif (EC50)
[6] = EVSA-T, 72 hours, Alamar Blue, read-out: EVSA-T prolif (EC50)
[7] = 3 h, Probe B, @ 0.012 μM, read-out: IC50 or PI cIAP1: PI
[8] = Probe B AbuRPFK(5&6FAM)-amide, read-out: IC50 or PI cIAP1: IC50

Compound	pIC50 [3]	pEC50 [2, 6]	pIC50 [1, 8]	also measured
CCCC(F)(F)c1cnc2c(c1)N(C(=O)CN1C[C@@H](C)NC[C@@H]1CN1C[C@@H](C)O[C@@H](C)C1)CC2(C)C [Example 246, 1-[6-(1,1-Difluorobutyl)-3,3-dimethyl-1H,2H,3H-pyrrolo[3,2-b]pyridin-1-yl]-2-[(2R,5R)-2-{[(2R,6S)-2,6-dimethylmorpholin-4-yl]methyl}-5-methylpiperazin-1-yl]ethan-1-one dihydrochloride]	7.37			inhibition at […] [1, 4]: 76%; pEC50 [2, 5]: 7.51
C[C@@H]1CN(CC(=O)N2CC(C)(C)c3cnc(Cc4ccc(F)cc4F)cc32)[C@@H](CN2CCC(=O)C2)CN1 [Example 207, 1-{[(2R,5R)-1-(2-{6-[(2,4-Difluorophenyl)methyl]-3,3-dimethyl-1H,2H,3H-pyrrolo[3,2-c]pyridin-1-yl}-2-oxoethyl)-5-methylpiperazin-2-yl]methyl}pyrrolidin-3-one dihydrochloride]	7.24			inhibition at […] [1, 4]: 98%; pEC50 [2, 5]: 8.40
CC(C)CC(F)(F)c1cc2c(cn1)C(C)(C)CN2C(=O)CN1C[C@@H](C)NC[C@@H]1CN1CCOCC1 [Example 229, 1-[6-(1,1-Difluoro-3-methylbutyl)-3,3-dimethyl-1H,2H,3H-pyrrolo[3,2-c]pyridin-1-yl]-2-[(2R,5R)-5-methyl-2-(morpholin-4-ylmethyl)piperazin-1-yl]ethan-1-one hydrochloride]		7.42		inhibition at […] [1, 7]: 73%; inhibition at 0.04 µM [3]: 53%
COC[C@H]1CN[C@H](C)CN1CC(=O)N1CC2(CN(C(C)=O)C2)c2ccc(Cl)cc21 [Example 71, 1-{1-Acetyl-6′-chloro-1′,2′-dihydrospiro[azetidine-3,3′-indole]-1′-yl}-2-[(2R,5R)-2-(methoxymethyl)-5-methylpiperazin-1-yl]ethan-1-one hydrochloride salt]	6.31	5.11	6.27	pEC50 ([2]; EVSA-T cell line, 72 hours, Alamar Blue, read-out: EC50, inhibition of cell growth): > 5.00
C[C@@H]1CN(CC(=O)N2CC(C)(c3ccccc3)c3ccc(C#N)cc32)[C@@H](C(=O)N2CCOCC2)CN1 (stereo partly drawn) [Example 149, 3-Methyl-1-{2-[(2R,5R)-5-methyl-2-[(morpholin-4-yl)carbonyl]piperazin-1-yl]acetyl}-3-phenyl-2,3-dihydro-1H-indole-6-carbonitrile hydrochloride]	7.26	5.04	6.89	
C[C@@H]1CN(CC(=O)N2CC(C)(C)c3ncc(Cc4ccc(F)cc4F)cc32)[C@@H](CN2CC[C@H](F)C2)CN1 [Example 204, 1-{6-[(2,4-Difluorophenyl)methyl]-3,3-dimethyl-1H,2H,3H-pyrrolo[3,2-b]pyridin-1-yl}-2-[(2R,5R)-2-{[(3S)-3-fluoropyrrolidin-1-yl]methyl}-5-methylpiperazin-1-yl]ethan-1-one dihydrochloride]	6.96			inhibition at […] [1, 4]: 91%; pEC50 [2, 5]: 7.68
COC[C@H]1CN[C@H](C)CN1CC(=O)N1CC(C)(C)c2cnc(-c3ccsc3)cc21 [Example 126, 1-[3,3-Dimethyl-6-(thiophen-3-yl)-1H,2H,3H-pyrrolo[3,2-c]pyridin-1-yl]-2-[(2R,5R)-2-(methoxymethyl)-5-methylpiperazin-1-yl]ethan-1-one dihydrochloride]	6.42			pIC50 ([1]; read-out: IC50 or PI cIAP1: IC50): 7.07; pEC50 ([2]; EVSA-T, 72 h, read-out: EC50, inhibition of cell growth): > 5.00; pEC50 [2, 5]: 5.74
C[C@@H]1CN(CC(=O)N2CC(C)(C)c3ncc(Cc4ccccc4F)cc32)[C@@H](CN2CCOCC2)CN1 [Example 247, 1-{6-[(2-Fluorophenyl)methyl]-3,3-dimethyl-1H,2H,3H-pyrrolo[3,2-b]pyridin-1-yl}-2-[(2R,5R)-5-methyl-2-(morpholin-4-ylmethyl)piperazin-1-yl]ethan-1-one dihydrochloride]	7.18			inhibition at […] [1, 4]: 80%; pEC50 [2, 5]: 7.48
C[C@@H]1CN(CC(=O)N2CC(C)(C)c3cnc(C(F)(F)C4CC4)cc32)[C@@H](CN2CCCC2=O)CN1 [Example 212, 1-{[(2R,5R)-1-{2-[6-(Cyclopropyldifluoromethyl)-3,3-dimethyl-1H,2H,3H-pyrrolo[3,2-c]pyridin-1-yl]-2-oxoethyl}-5-methylpiperazin-2-yl]methyl}pyrrolidin-2-one hydrochloride]	7.35	6.57	7.85	pIC50 [1]: > 6.00
COC[C@H]1CN[C@H](C)CN1CC(=O)N1CC(C)(C)c2cnc(C3=CCCC3)cc21 [Example 90, 1-[6-(Cyclopent-1-en-1-yl)-3,3-dimethyl-1H,2H,3H-pyrrolo[3,2-c]pyridin-1-yl]-2-[(2R,5R)-2-(methoxymethyl)-5-methylpiperazin-1-yl]ethan-1-one, hydrochloride salt]	6.57	6.48	7.10	

More lines, main results first:

pIC50 [3]	pEC50 [2, 6]	pIC50 [1, 8]	Compound	also measured
6.33	5.24		C[C@@H]1CN(CC(=O)N2CCc3cc(F)c(S(=O)(=O)c4ccccc4)cc32)CCN1 [Example 41, 1-(6-Benzenesulfonyl-5-fluoro-2,3-dihydro-indol-1-yl)-2-((R)-3-methyl-piperazin-1-yl)-ethanone]	pIC50 ([1]; Probe A AVPIK(5&6FAM)-amide, read-out: IC50 or PI cIAP1: IC50): 5.89
6.82	6.89		COC[C@H]1CN[C@H](C)CN1CC(=O)N1CC(C)(C)c2c[n+]([O-])c(Cc3ccc(F)cc3F)cc21 [Example 166, 6-[(2,4-Difluorophenyl)methyl]-1-{2-[(2R,5R)-2-(methoxymethyl)-5-methylpiperazin-1-yl]acetyl}-3,3-dimethyl-1H,2H,3H-1,5λ^5-pyrrolo[3,2-c][1λ^5]pyridin-5-one hydrochloride]	inhibition at […] [1, 7]: 76%
6.62	6.29	7.62	COC[C@H]1CN[C@H](C)CN1CC(=O)N1CC(C)(C)c2cnc(C(C)c3ccccc3)cc21 (stereo partly drawn) [Example 87, 1-[3,3-Dimethyl-6-(1-phenylethyl)-1H,2H,3H-pyrrolo[3,2-c]pyridin-1-yl]-2-[(2R,5R)-2-(methoxymethyl)-5-methylpiperazin-1-yl]ethan-1-one, hydrochloride salt]	pIC50 [1]: > 6.00
7.00	6.59		C[C@@H]1CN(CC(=O)N2CC(C)(C)c3c[n+]([O-])c(Cc4ccc(F)cc4F)cc32)[C@@H](C(=O)N(C)C)CN1 [Example 167, (2R,5R)-1-(2-{6-[(2,4-Difluorophenyl)methyl]-3,3-dimethyl-5-oxo-1H,2H,3H-1,5λ^5-pyrrolo[3,2-c][1λ^5]pyridin-1-yl}-2-oxoethyl)-N,N,5-trimethylpiperazine-2-carboxamide hydrochloride]	inhibition at […] [1, 7]: 84%
6.72	7.26		COC[C@H]1CN[C@H](C)CN1CC(=O)N1CC(C)(C)c2cnc(Cc3ccc(F)cc3F)cc21 [Example 105, 1-{6-[(2,4-Difluorophenyl)methyl]-3,3-dimethyl-1H,2H,3H-pyrrolo[3,2-c]pyridin-1-yl}-2-[(2R,5R)-2-(methoxymethyl)-5-methylpiperazin-1-yl]ethan-1-one, hydrochloride salt]	inhibition at 0.01 µM ([1]; 3 h, Probe B, @ 0.01 μM, read-out: IC50 or PI cIAP1: PI): 74%
	7.31		C[C@@H]1CN(CC(=O)N2CC(C)(C)c3cnc(C(F)(F)c4ccccc4)cc32)[C@@H](CN2CCN(C)C2=O)CN1 [Example 197, 1-{[(2R,5R)-1-(2-{6-[Difluoro(phenyl)methyl]-3,3-dimethyl-1H,2H,3H-pyrrolo[3,2-c]pyridin-1-yl}-2-oxoethyl)-5-methylpiperazin-2-yl]methyl}-3-methylimidazolidin-2-one hydrochloride]	inhibition at […] [1, 7]: 76%; inhibition at 0.04 µM [3]: 68%
	7.60	7.96	CCC(F)(F)c1cnc2c(c1)N(C(=O)CN1C[C@@H](C)NC[C@@H]1CN1CCOC[C@H]1C)CC2(C)C [Example 186, 1-[6-(1,1-Difluoropropyl)-3,3-dimethyl-1H,2H,3H-pyrrolo[3,2-b]pyridin-1-yl]-2-[(2R,5R)-5-methyl-2-{[(3R)-3-methylmorpholin-4-yl]methyl}piperazin-1-yl]ethan-1-one, a hydrochloride salt]	inhibition at 0.04 µM [3]: 59%
6.40	5.80	7.10	CCC1(CC)CN(C(=O)CN2C[C@@H](C)NC[C@@H]2C(=O)N2CCOCC2)c2cc(Cl)ccc21 [Example 135, 1-(6-Chloro-3,3-diethyl-2,3-dihydro-1H-indol-1-yl)-2-[(2R,5R)-5-methyl-2-[(morpholin-4-yl)carbonyl]piperazin-1-yl]ethan-1-one hydrochloride]	
	7.89		C[C@@H]1CN(CC(=O)N2CC(C)(C)c3cnc(Cc4ccccc4F)cc32)[C@@H](CN2CCCC2=O)CN1 [Example 242, 1-{[(2R,5R)-1-(2-{6-[(2-Fluorophenyl)methyl]-3,3-dimethyl-1H,2H,3H-pyrrolo[3,2-c]pyridin-1-yl}-2-oxoethyl)-5-methylpiperazin-2-yl]methyl}pyrrolidin-2-one hydrochloride]	inhibition at […] [1, 7]: 92%; inhibition at 0.04 µM [3]: 65%
6.77	6.80	8.05	COC[C@H]1CN[C@H](C)CN1CC(=O)N1CC(C)(C)c2cnc(Cc3ccccc3F)cc21 [Example 77, 1-{6-[(2-Fluorophenyl)methyl]-3,3-dimethyl-1H,2H,3H-pyrrolo[3,2-c]pyridin-1-yl}-2-[(2R,5R)-2-(methoxy-methyl)-5-methyl-piperazin-1-yl]ethan-1-one]	
